{"source": "patent US20240032546A1", "about": "“BRASSICA SEED MEAL (BSM)-BASED BIO-HERBICIDE FOR INHIBITING WEED GERMINATION, AND PREPARATION METHOD AND USE THEREOF” (Institute of Soil Science, CAS, priority 2022, published 2024)", "tested_on": "field weeds (Portulaca oleracea L., Bothriochloa ischaemum L., Eleusine indica L., Setaria viridis L., and Amaranthus spinosus L.)", "assay": "Field soil test of weed growth and germination inhibition", "assay_type": "in vivo", "conditions": "after 1 week, dazomet 40 g/m2, BSM-based bio-herbicide 0.8 wt %", "description": "Dazomet was added to the field soil at 40 g/m 2 of soil (as a treatment 1). The BSM-based bio-herbicide (Example 1) was added to another field soil at 0.8 wt % of the BSM per mu of soil (1 mu=300,000 jin) (as a treatment 2). The same area of field soil without adding any exogenous substances was used as a control. After 1 week, the weed growth of the two treatments and the control (field weeds included Portulaca oleracea L., Bothriochloa ischaemum L., Eleusine indica L., Setaria viridis L., and Amaranthus spinosus L.) was counted, and the germination inhibition rate of weed seeds was calculated.", "data": [{"smiles": "CN1CSC(=S)N(C)C1", "note": "[dazomet, Dazomet]", "values": [{"measurement": "inhibition rate to the field weeds compared with the control", "result": 86.84, "unit": "%"}, {"measurement": "weight of field weeds", "setting": "control 1.550 kg/m^2", "result": 0.204, "unit": "kg/m^2"}]}]}
